This note sets out measurements from patent US20120135959A1, “Metalloprotein inhibitors containing nitrogen based ligands” (priority 2006, published 2012).

One experiment concerns the target T1, MMP-3 (Homo sapiens, UniProt P08254).
T1 construct: purchased Biomol Research Laboratories
Put plainly: biochemical. Type of experiment: biochemical.

Experiment [1] deals with T2, MMP-1 (Homo sapiens, UniProt P03956).
T2 sequence (P03956 100-469): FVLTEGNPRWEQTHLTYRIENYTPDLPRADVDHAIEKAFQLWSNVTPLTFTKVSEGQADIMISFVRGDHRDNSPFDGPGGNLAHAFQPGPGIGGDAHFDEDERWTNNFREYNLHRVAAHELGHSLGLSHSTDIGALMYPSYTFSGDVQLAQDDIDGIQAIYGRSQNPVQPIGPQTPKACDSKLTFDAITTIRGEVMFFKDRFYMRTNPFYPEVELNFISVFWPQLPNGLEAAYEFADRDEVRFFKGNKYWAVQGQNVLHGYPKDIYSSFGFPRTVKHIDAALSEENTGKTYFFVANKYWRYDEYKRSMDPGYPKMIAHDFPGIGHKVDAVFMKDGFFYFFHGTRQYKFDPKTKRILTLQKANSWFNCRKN
Particulars: for potency v. AHA: based on MMP-1 IC50; for IC50: read-out: MMP-1 IC50, fluorescence-based assay, pH 7.5, 1 h preincubation at 37° C., at least three independent experiments, spread in brackets.

Experiment [2] addresses T3, soybean lipoxygenase (sbLO) (Glycine max, UniProt P08170).
T3 construct: purchased Sigma-Aldrich
T3 sequence (P08170 1-839): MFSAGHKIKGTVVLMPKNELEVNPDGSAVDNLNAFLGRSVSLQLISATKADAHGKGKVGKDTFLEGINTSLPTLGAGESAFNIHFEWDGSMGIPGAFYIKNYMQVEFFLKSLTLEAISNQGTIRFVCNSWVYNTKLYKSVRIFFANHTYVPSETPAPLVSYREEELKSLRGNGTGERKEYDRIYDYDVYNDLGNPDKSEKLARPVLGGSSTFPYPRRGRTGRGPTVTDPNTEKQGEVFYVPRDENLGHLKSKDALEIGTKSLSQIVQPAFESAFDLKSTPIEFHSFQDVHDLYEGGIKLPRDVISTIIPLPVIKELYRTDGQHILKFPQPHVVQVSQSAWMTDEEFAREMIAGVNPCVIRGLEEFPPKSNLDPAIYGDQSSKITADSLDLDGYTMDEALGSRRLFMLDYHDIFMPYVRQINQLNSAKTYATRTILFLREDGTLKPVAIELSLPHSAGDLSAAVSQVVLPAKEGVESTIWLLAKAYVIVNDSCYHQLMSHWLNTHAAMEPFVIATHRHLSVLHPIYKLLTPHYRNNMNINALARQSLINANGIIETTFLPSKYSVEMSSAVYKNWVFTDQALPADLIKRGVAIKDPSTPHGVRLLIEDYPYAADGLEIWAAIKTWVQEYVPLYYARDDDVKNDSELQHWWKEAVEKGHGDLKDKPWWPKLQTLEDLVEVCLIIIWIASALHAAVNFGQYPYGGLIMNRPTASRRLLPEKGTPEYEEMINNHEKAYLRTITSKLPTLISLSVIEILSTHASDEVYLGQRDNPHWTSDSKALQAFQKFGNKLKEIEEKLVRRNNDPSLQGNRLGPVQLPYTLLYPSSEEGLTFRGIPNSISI
Put plainly: Lipoxygenase assay (absorbance at 234 nm, linoleic acid substrate). The format is biochemical. The note with it: 3 hours preincubation; for inhibition at 300 µM: reference compounds, read-out: inhibition of product formation relative to control (no inhibitor).

Experiment [3] concerns the target recombinant anthrax lethal factor (Bacillus anthracis, UniProt P15917). Put plainly: biochemical. The format is biochemical.
Experiment [4] has as its target T2, MMP-1. Put plainly: biochemical.

Like-named read-outs stand apart in the source and are kept apart here.

T1 sequence (P08254 100-477): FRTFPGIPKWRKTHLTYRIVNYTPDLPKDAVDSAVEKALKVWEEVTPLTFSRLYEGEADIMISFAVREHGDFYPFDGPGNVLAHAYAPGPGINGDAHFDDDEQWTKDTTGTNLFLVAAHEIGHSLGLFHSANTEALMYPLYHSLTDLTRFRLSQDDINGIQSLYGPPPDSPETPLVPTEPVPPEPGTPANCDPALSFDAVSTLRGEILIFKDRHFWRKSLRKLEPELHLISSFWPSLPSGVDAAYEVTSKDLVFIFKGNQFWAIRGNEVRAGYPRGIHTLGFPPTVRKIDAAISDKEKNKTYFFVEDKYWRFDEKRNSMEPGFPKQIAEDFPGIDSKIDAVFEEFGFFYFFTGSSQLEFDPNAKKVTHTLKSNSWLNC
recombinant anthrax lethal factor, sequence (P15917 34-809 limits assumed): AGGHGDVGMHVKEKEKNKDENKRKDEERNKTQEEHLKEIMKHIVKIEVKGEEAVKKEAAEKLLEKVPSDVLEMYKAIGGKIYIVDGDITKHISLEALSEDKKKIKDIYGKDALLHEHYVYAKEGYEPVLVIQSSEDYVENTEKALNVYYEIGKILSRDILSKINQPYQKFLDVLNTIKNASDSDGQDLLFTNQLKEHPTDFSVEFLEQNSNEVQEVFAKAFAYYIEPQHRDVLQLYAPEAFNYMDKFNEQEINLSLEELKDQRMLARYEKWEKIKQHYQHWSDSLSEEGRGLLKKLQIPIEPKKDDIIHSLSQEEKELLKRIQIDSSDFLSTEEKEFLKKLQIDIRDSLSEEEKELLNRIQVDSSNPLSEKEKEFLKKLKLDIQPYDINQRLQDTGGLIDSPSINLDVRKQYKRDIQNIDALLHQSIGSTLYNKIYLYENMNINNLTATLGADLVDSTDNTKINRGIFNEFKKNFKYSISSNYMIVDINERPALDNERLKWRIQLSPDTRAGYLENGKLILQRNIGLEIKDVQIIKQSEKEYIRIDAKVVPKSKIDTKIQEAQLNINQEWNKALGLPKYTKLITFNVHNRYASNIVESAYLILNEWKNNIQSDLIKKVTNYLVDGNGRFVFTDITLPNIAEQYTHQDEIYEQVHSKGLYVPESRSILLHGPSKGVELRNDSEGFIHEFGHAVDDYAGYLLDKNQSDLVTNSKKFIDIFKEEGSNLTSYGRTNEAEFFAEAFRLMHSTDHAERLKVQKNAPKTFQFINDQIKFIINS

As a reminder, the IC50 is the point on the concentration scale where inhibition reaches its midpoint. For the compound `O=C(O)c1ccccn1` [ZBG 1, picolinic acid], the half-maximal inhibitory concentration (IC50) at MMP-3 is 181 µM; in experiment [3], 3.5 mM; on MMP-1 [4], 2.5 mM. Moreover, the “potency v. AHA” value at MMP-3 was 139-fold; at MMP-1 [1] it was 17-fold. Further, in experiment [2] (ZBGs, method gives chelator final concentration 100 μM), the “inhibition of lipoxygenase activity” value is reported as 2.3%.

Turning to `c1ccc(CNCc2ccccn2)nc1` [ZBG 5, di(2-picolyl)amine], the half-maximal inhibitory concentration (IC50) at MMP-1 [1] came to 63 µM.

Turning to `C1CNCCNCCNCCN1` [ZBG 4, cyclen], the “potency v. AHA” value is 163-fold on MMP-3 and 98-fold on MMP-1 [1]. Also, the IC50 on MMP-3 (pH 6, read-out: MMP-3 IC50) was determined as 154 µM; at MMP-1 [1] it was 430 µM; in experiment [3] (pH 7, read-out: LF IC50), 5.7 mM.

With `O=C(O)CNCC(=O)O` [ZBG 6, aminodiacetic acid], the “potency v. AHA” value on MMP-3 was 139-fold; on MMP-1 [1], 82-fold. Also, the IC50 is 180 µM at MMP-3 (pH 6, read-out: MMP-3 IC50); 510 µM on MMP-1 [1]; 0.93 mM in experiment [3] (pH 7, read-out: LF IC50).

By inhibition is commonly meant the change of the read-out against control, counted positive when it falls. On to `Cc1occc(=O)c1O` [maltol], for which the inhibition at 300 µM in experiment [2] was determined as 70%.

In the case of `C1CNCCNCCN1` [ZBG 2], the “potency v. AHA” value is reported as 19-fold on MMP-3 and 7-fold at MMP-1 [1]. Also, the half-inhibitory concentration (IC50) worked out at 1350 µM on MMP-3 (pH 6, read-out: MMP-3 IC50); 5690 µM on MMP-1 [1]; 1.27 mM in experiment [3] (pH 7, read-out: LF IC50).

As for di(2-picolyl)amine [ZBG 5], the “potency v. AHA” value is 185-fold on MMP-3 and 660-fold at MMP-1 [1]. Also, the IC50 at MMP-3 (pH 6, read-out: MMP-3 IC50) was found to be 136 µM; in experiment [3] (pH 7, read-out: LF IC50), 0.37 mM.

With `O=C(O)c1cccc(C(=O)O)n1` [ZBG 3, dipicolenic acid], the “potency v. AHA” value on MMP-3 is 4-fold; on MMP-1 [1] it was 3-fold. Moreover, the IC50 on MMP-3 (pH 6, read-out: MMP-3 IC50) stood at 6100 µM; on MMP-1 [1], 13500 µM; in experiment [3] (pH 7, read-out: LF IC50) it was 2.69 mM.

On to `CC(=O)NO` [AHA, acetohydroxamic acid, reference compound], for which the IC50 against MMP-3 stood at 25100 µM; in experiment [3] (pH 7, read-out: LF IC50) it was 11.4 mM; on MMP-1 [4], 41.6 mM. Besides, in experiment [2], the inhibition at 300 µM came out at 99%.
